Read-outs that look alike come from different tables or passages of the source.
Key:
[1] = biological target: Mnk1 (Homo sapiens (Human), UniProt Q9BUB5); experiment: Mnk1 kinase inhibition, ADP-Glo ADP monitoring assay; type: biochemical; settings: read-out: Mnk1 IC50
Description: (§1) The synthesized compounds then were tested for inhibition of the kinase activity (IC50) of Mnk1 and/or Mnk2 using the ADP monitoring assay for kinases described in Zegzouti, H.; Zdanovskaia, M.; Hsiao, K.; Goueli, S. A., ADP-Glo: A Bioluminescent and homogeneous ADP monitoring assay for kinases.

[2] = biological target: Mnk2 (Homo sapiens (Human), UniProt Q9HBH9); experiment: Mnk2 kinase inhibition, ADP-Glo ADP monitoring assay; type: biochemical; settings: ADP-Glo kinase assay
Description: as §1

[3] = read-out: Mnk2 inhibition IC50 (+,++,+++)

Sequence of Mnk2 (Q9HBH9 whole entry): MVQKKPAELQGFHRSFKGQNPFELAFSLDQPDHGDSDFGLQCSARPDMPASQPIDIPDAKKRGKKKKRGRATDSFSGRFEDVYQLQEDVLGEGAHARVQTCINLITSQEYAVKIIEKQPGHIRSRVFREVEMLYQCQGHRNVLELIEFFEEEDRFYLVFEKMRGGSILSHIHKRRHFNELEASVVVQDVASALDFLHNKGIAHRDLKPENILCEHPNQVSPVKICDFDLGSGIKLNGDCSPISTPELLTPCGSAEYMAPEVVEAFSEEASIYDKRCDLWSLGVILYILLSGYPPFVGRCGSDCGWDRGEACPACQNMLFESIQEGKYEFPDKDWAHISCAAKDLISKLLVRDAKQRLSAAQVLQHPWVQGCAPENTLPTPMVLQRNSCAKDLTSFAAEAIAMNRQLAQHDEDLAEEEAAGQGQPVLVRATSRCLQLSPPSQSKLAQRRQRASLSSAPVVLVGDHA
Sequence of Mnk1 (Q9BUB5 whole entry): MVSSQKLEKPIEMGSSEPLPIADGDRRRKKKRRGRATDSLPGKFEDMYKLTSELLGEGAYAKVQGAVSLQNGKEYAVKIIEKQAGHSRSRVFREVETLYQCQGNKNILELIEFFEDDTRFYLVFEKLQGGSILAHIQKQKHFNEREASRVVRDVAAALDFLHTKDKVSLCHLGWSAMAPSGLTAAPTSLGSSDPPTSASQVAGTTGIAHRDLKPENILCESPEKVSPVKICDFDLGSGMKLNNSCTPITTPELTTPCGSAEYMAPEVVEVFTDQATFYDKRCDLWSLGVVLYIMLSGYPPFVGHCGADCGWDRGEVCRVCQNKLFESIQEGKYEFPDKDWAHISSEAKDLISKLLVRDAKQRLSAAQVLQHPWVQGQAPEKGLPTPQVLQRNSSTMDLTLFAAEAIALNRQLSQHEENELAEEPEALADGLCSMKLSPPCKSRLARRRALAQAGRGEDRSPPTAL

Compound	IC50 [1]	IC50 ([2]; read-out: Mnk2 IC50)	IC50 ([2]; unit inferred, read-out: Mnk2 IC50)	IC50 [2, 3]
CCNc1nccc(-c2cnn(-c3cccc(OC)c3)c2)n1 [NUCC-0054132]	9 µM			
COc1cccc(-n2cc(-c3ccnc(NCCc4c[nH]cn4)n3)cn2)c1 [NUCC-0054133]	7 µM	1.8 µM		
Clc1cccc(-n2cc(-c3ccnc(NCc4ccncc4)n3)cn2)c1 [NUCC-0054134]	6 µM			
COc1cccc(-n2cc(-c3ccnc(NCCN4CCOCC4)n3)cn2)c1 [NUCC-0054138]	12 µM			
CCCn1ncc(-c2ccnc(NCc3nccn3CC)n2)c1C [NUCC-0054147]	6 µM	16 µM		
Cn1cc(-c2ccnc(NCCN3CCOCC3)n2)cn1 [NUCC-0060894]	4 µM			
Cn1cc(-c2ccnc(NCCCN3CCCCC3)n2)cn1 [NUCC-0060895]	5 µM			
Cn1cc(-c2ccnc(N3CCC[C@H]3CO)n2)cn1 [NUCC-0060896]	3 µM	3.4 µM		
Cn1cc(-c2ccnc(NCc3ccc(F)cc3)n2)cn1 [NUCC-0060897]	9 µM			
c1ccc2c(c1)ccn2-c1ccnc(NCCN2CCOCC2)n1 [NUCC-0060953]	9 µM			
c1ccc2c(c1)ccn2-c1ccnc(NCCc2cnc[nH]2)n1 [NUCC-0060955]	16 µM	5 µM		
c1ccc2c(c1)ncn2-c1ccnc(NCCN2CCOCC2)n1 [NUCC-0060956]	1 µM			
c1cc(CNc2nccc(-c3cnn(C4CCOCC4)c3)n2)ccn1 [NUCC-0060959]	90 µM			
c1ccc(-n2cc(-c3ccnc(NCCc4c[nH]cn4)n3)cn2)cc1 [NUCC-0060965]	30 µM			
c1cc(CCNc2nccc(-c3cnn(CCN4CCOCC4)c3)n2)ccn1 [NUCC-0060970]	70 µM			
c1ccc(Cn2cc(-c3ccnc(NCCc4c[nH]cn4)n3)cn2)cc1 [NUCC-0060971]	19 µM			
c1ccc(Cn2cc(-c3ccnc(NCCc4ccncc4)n3)cn2)cc1 [NUCC-0060972]	19 µM	2.5 µM		
COc1cccc(-n2cc(-c3ccnc(NCCCN4CCOCC4)n3)cn2)c1 [NUCC-0077154, 4-(1-(3-methoxyphenyl)-1H-pyrazol-4-yl)-N-(3-morpholinopropyl)pyrimidin-2-amine]	28 µM			
COc1cccc(-n2cc(-c3ccnc(NCc4ccccc4)n3)cn2)c1 [NUCC-0077155]	21 µM			
COc1cccc(-n2cc(-c3ccnc(NCc4ccncc4)n3)cn2)c1 [NUCC-0077163]	8 µM			

Compound	IC50 [1]	IC50 ([2]; read-out: Mnk2 IC50)	IC50 ([2]; unit inferred, read-out: Mnk2 IC50)	IC50 [2, 3]
COc1cccc(-n2cc(-c3ccnc(NC4CCNCC4)n3)cn2)c1 [NUCC-0077164]	6 µM			
COc1cccc(-n2cc(-c3ccnc(NC4CCOC4)n3)cn2)c1 (stereo not drawn) [NUCC-0077165]	6 µM			
COc1cccc(-n2cc(-c3ccnc(NCCN(C)C)n3)cn2)c1 [NUCC-0077166]	4 µM			
c1ccc(Cn2cc(-c3ccnc(NCCc4c[nH]cn4)c3)cn2)cc1 [NUCC-0077167]	8 µM	7.6 µM		
COc1cccc(-n2cc(-c3ccnc(Nc4ccncc4)n3)cn2)c1 [NUCC-0077168]	19 µM			
CN(C)CCNc1nccc(-n2cnc3ccccc32)n1 [NUCC-0125582]	0.5 µM	0.048 µM		
c1ccc2c(c1)ncn2-c1ccnc(NC2CCNCC2)n1 [NUCC-0125584]	1.4 µM			
c1ccc2c(c1)ncn2-c1ccnc(NCc2ccncc2)n1 [NUCC-0125586]	0.5 µM			
CN1CCN(c2ccc(Nc3nccc(-n4cnc5ccccc54)n3)cc2)CC1 [NUCC-0125587]	0.5 µM			
c1ccc2c(c1)ncn2-c1ccnc(Nc2ccc(N3CCCCC3)cc2)n1 [NUCC-0125588]	0.2 µM			
COc1cccc(-n2cc(-c3ccnc(NC4CCNC4)n3)cn2)c1 (stereo not drawn) [NUCC-0125590]	6 µM	0.78 µM		
COc1cccc(-n2cc(-c3ccnc(NC4CCOCC4)n3)cn2)c1 [NUCC-0125591]	21 µM			
c1ccc2c(c1)ncn2-c1ccnc(Nc2ccc(-n3cccn3)cc2)n1 [NUCC-0125593]	0.65 µM	0.039 µM		
NC(=O)c1ccc(Nc2nccc(-n3cnc4ccccc43)n2)cc1 [NUCC-0125594]	0.7 µM	0.03 µM		
c1ccc2c(c1)ncn2-c1ccnc(NC2CCOCC2)n1 [NUCC-0125595]	0.5 µM	0.083 µM		
CNC(=O)c1ccc(Nc2nccc(-n3cnc4ccccc43)n2)cc1 [NUCC-0125596]	0.2 µM	0.034 µM		
O=C(c1ccc(Nc2nccc(-n3cnc4ccccc43)n2)cc1)N1CCNCC1 [NUCC-0125597]	6 µM			
COc1cccc(-c2cn(-c3ccnc(NCCc4c[nH]cn4)n3)c3ccccc23)c1 [NUCC-0125599]	29 µM	6.2 µM		
COc1cccc(-n2cc(-c3ccnc(NCCc4ccncc4)c3)cn2)c1 [NUCC-0125601]	5 µM	1.7 µM		
COc1cnc(NCCc2ccncc2)nc1-n1cnc2ccccc21 [NUCC-0175698]	5 µM	1.8 µM		

Compound	IC50 [1]	IC50 ([2]; read-out: Mnk2 IC50)	IC50 ([2]; unit inferred, read-out: Mnk2 IC50)	IC50 [2, 3]
c1ccc2c(c1)NCCN2c1ccnc(NCCc2ccncc2)n1 [NUCC-0175722]	1.2 µM	0.25 µM		
c1cnc2ncn(-c3ccnc(NCCc4ccncc4)n3)c2c1 [NUCC-0176138]	8.5 µM	6 µM		
c1cnc2ncn(-c3ccnc(NC4CCOC4)n3)c2c1 (stereo not drawn) [NUCC-0176142]	13 µM	5.3 µM		
c1cc(CCNc2nccc(-n3cnc4cnccc43)n2)ccn1 [NUCC-0176143]	4.3 µM	1.1 µM		
OC1CCC(Nc2nccc(-n3cnc4ccccc43)n2)CC1 (stereo not drawn) [NUCC-0176145]	0.4 µM	0.052 µM		
c1ccc2c(c1)ncn2-c1ccnc(NN2CCOCC2)n1 [NUCC-0176146]	12 µM	1 µM		
OC1CCCC1Nc1nccc(-n2cnc3ccccc32)n1 (stereo not drawn) [NUCC-0176147]	0.45 µM	0.082 µM		
c1ccc2c(c1)ncn2-c1ccnc(N[C@@H]2CCOC2)n1 [NUCC-0176149]		0.094 µM		
c1ccc2c(c1)ncn2-c1ccnc(NC2COC2)n1 [NUCC-0176150]	0.42 µM	0.09 µM		
c1ccc2c(c1)ncn2-c1ccnc(NC2CCCOC2)n1 (stereo not drawn) [NUCC-0176151]	0.39 µM	0.044 µM		
c1cc2c(cn1)ncn2-c1ccnc(NC2CCOC2)n1 (stereo not drawn) [NUCC-0176152]	1.6 µM	1.3 µM		
COC1CCC(Nc2nccc(-n3cnc4ccccc43)n2)CC1 (stereo not drawn) [NUCC-0176153]	0.48 µM	0.081 µM		
O[C@@H]1CC[C@@H](Nc2nccc(-n3cnc4ccccc43)n2)C1 [NUCC-0176165]	0.34 µM	0.061 µM		
OC1CCC(Nc2nccc(-n3cnc4ccccc43)n2)CC1 (stereo not drawn) [NUCC-0176166]	0.39 µM	0.063 µM		
COC1CCC(Nc2nccc(-n3cnc4ccccc43)n2)CC1 (stereo not drawn) [NUCC-0176167]	0.3 µM	0.06 µM		
c1ccc2c(c1)OCCN2c1ccnc(NCCc2ccncc2)n1 [NUCC-0176230]	5.1 µM	3.5 µM		
Brc1cnc(NCCc2ccncc2)nc1-n1ccnc1 [NUCC-0196229]			1.2 µM	
OC1CCN(c2ncc(Cl)c(-n3cnc4ccccc43)n2)CC1 [NUCC-0200781]				< 1 µM
N#Cc1cnc(-n2cnc3ccccc32)nc1NCCCc1ccncc1 [NUCC-0200914]				< 1 µM
NC1CC(Oc2ncc(-c3ccccc3OC(F)(F)F)c(-n3cnc4ccccc43)n2)C1 (stereo not drawn) [NUCC-0201898, 3-((4-(1H-benzo[d]imidazol-1-yl)-5-(2-(trifluoromethoxy)phenyl)pyrimidin-2-yl)oxy)cyclobutan-1-amine]				< 1 µM

Reference: patent US10851082B2, “Substituted aromatic n-heterocyclic compounds as inhibitors of mitogen-activated protein kinase interacting kinase 1 (MNK1) and 2 (MNK2)” (Northwestern University, priority 2015, dated 2020)
